The record followed here is patent US8013006B2.

Like-named read-outs stand apart in the source and are kept apart here.

The test system of this assay is HCV replicon. Nature of the assay: microbe, parasite or virus in culture. The format is cell-based. The note with it: read-out: Replicon IC5Os.
[1] abbreviates: Replicon IC50 values are determined by firefly luciferase signal, bicistronic replicon, 2 days.

With `CCn1c(-c2ccc(NC(=O)OC3C[C@H](C)CC[C@H]3C(C)C)cc2)c(C#N)c2ccc(OC)cc21` (stereo partly drawn) [Compound 316], the IC50 under setting [1] was above 2 µM.

With `CCn1c(-c2ccc(NC(=O)OCCF)cc2)c(C#N)c2ccc(OC)cc21` [Compound 317], under setting [1], the IC50 is above 2 µM.

Take `CCn1c(-c2ccc(NC(=O)Oc3ccc(Cl)cc3)cc2)c(C#N)c2ccc(OC)cc21` [Compound 318]: the IC50 under setting [1] was above 2 µM.

As for `CCn1c(-c2ccc(NC(=O)Oc3ccc(F)cc3)cc2)c(C#N)c2ccc(OC)cc21` [Compound 319], under setting [1], the IC50 was above 2 µM.

As for `CCn1c(-c2ccc(NC(=O)Oc3ccc(C)cc3)cc2)c(C#N)c2ccc(OC)cc21` [Compound 320], the IC50 under setting [1] was above 2 µM.

`CCn1c(-c2cccc(C(=O)NCCCN3CCOCC3)c2)c(C#N)c2ccc(OC)cc21` [Compound 323]: the IC50 under setting [1] was above 2 µM.

On to `CCn1c(-c2cccc(NC(=O)CCl)c2)c(C#N)c2ccc(OC)cc21` [Compound 324], for which the IC50 under setting [1] was above 2 µM.

With `CCn1c(-c2cccc(NC(=O)c3ccccc3)c2)c(C#N)c2ccc(OC)cc21` [Compound 326], the IC50 under setting [1] was above 2 µM.

In the case of `CCn1c(-c2cccc(NC(=O)c3ccco3)c2)c(C#N)c2ccc(OC)cc21` [Compound 327], under setting [1], the IC50 is above 2 µM.

As for `CCn1c(-c2cccc(NC(=O)c3cc(C)on3)c2)c(C#N)c2ccc(OC)cc21` [Compound 328], under setting [1], the IC50 is above 2 µM.

In the case of `CCn1c(-c2cccc(NC(C)=O)c2)c(C#N)c2ccc(OC)cc21` [Compound 329], the IC50 under setting [1] is above 2 µM.

Consider `CCn1c(-c2cccc(NC(=O)c3ccc4nonc4c3)c2)c(C#N)c2ccc(OC)cc21` [Compound 330], for which the IC50 under setting [1] was above 2 µM.

For `CCn1c(-c2cccs2)c(C#N)c2ccc(OC)cc21` [Compound 337], the IC50 under setting [1] was above 2 µM.

As for `CCn1c(-c2cccc3c2oc2ccccc23)c(C#N)c2ccc(OC)cc21` [Compound 338], the IC50 under setting [1] was above 2 µM.

Turning to `CCCn1c(-c2ccc(NS(=O)(=O)CC)cc2)cc2ccc(OC)cc21` [Compound 343], the IC50 under setting [1] is above 2 µM.

In the case of `CCn1c(-c2cn(Cc3ccccc3)cn2)c(C#N)c2ccc(OC)cc21` [Compound 347], under setting [1], the IC50 is above 2 µM.

For the compound `CCn1c(-c2cc[nH]n2)c(C#N)c2ccc(OC)cc21` [Compound 348], the IC50 under setting [1] was above 2 µM.

Take `CCC(C)OC(=O)Nc1cccc(-c2c(C#N)c3ccc(OC)cc3n2CC)c1` (stereo not drawn) [Compound 349]: the IC50 (Hepatitis C virus, 48 h) was below 0.5 µM.

As for `C#CCOC(=O)Nc1cccc(-c2c(C#N)c3ccc(OC)cc3n2CC)c1` [Compound 350], the IC50 (Hepatitis C virus, 48 h) is 0.5 to 2 µM.

With `C=CC(C)OC(=O)Nc1cccc(-c2c(C#N)c3ccc(OC)cc3n2CC)c1` (stereo not drawn) [Compound 351], the IC50 (Hepatitis C virus, 48 h) fell in the range of 0.5 to 2 µM.

Regarding `C#CCCOC(=O)Nc1cccc(-c2c(C#N)c3ccc(OC)cc3n2CC)c1` [Compound 352], the IC50 under setting [1] was 0.5 to 2 µM.

Consider `CCn1c(-c2cccc(NC(=O)OC)c2)c(C#N)c2ccc(OC)cc21` [Compound 353], for which the IC50 (Hepatitis C virus, 48 h) is below 0.5 µM.

Turning to `CC#CCOC(=O)Nc1cccc(-c2c(C#N)c3ccc(OC)cc3n2CC)c1` [Compound 354], under setting [1], the IC50 lay within 0.5 to 2 µM.

As for `CCn1c(-c2cccc(NC(=O)OCCl)c2)c(C#N)c2ccc(OC)cc21` [Compound 355], the IC50 under setting [1] was above 2 µM.

Regarding `CCn1c(-c2cccc(NC(=O)OCC(C)(C)C)c2)c(C#N)c2ccc(OC)cc21` [Compound 356], under setting [1], the IC50 is above 2 µM.

Take `CCC(C)OC(=O)Nc1ccc(-c2c(C#N)c3ccc(OC)cc3n2CC)cc1` (stereo not drawn) [Compound 357]: the IC50 under setting [1] was above 2 µM.

For the compound `C#CCOC(=O)Nc1ccc(-c2c(C#N)c3ccc(OC)cc3n2CC)cc1` [Compound 358], the IC50 under setting [1] is above 2 µM.

With `C=CC(C)OC(=O)Nc1ccc(-c2c(C#N)c3ccc(OC)cc3n2CC)cc1` (stereo not drawn) [Compound 359], under setting [1], the IC50 is above 2 µM.

With `C#CCCOC(=O)Nc1ccc(-c2c(C#N)c3ccc(OC)cc3n2CC)cc1` [Compound 360], the IC50 under setting [1] is above 2 µM.

As to `CCn1c(-c2ccc(S(=O)(=O)NC3CC3)cc2)c(C#N)c2ccc(OC)cc21` [Compound 363], the IC50 under setting [1] lay in the range of 0.5 to 2 µM.
